{"source": "patent US20220265690A1", "about": "“USE OF SOTAGLIFLOZIN FOR THE TREATMENT OF PATIENTS WITH TYPE 2 DIABETES MELLITUS AND MODERATE RENAL IMPAIRMENT” (Lexicon Pharmaceuticals, Inc., priority 2019, published 2022)", "key": {"[1]": {"test_system": "patients with type 2 diabetes", "settings": "phase II trials; cited from earlier work"}, "[2]": {"test_system": "patients with T2D and documented moderate renal insufficiency (CKD 3A, 3B)", "test": "Multicentre, double-blind, placebo-controlled clinical study of sotagliflozin 200 mg and 400 mg once daily; HbA1c change at Week 26", "type": "in vivo", "settings": "for HbA1c (%) Change from baseline to Week 26 LS Mean difference (SE) vs. placebo / HbA1c (%) Change from baseline to Week 26 LS Mean (SE) / HbA1c (%) Week 26 Mean (SD) / HbA1c (%) Week 26 Median: overall ITT population; for HbA1c (%) Change from baseline to Week 26 LS Mean (SE): ANCOVA, multiple imputation; for LS mean change in HbA1c from baseline to W26 / mean HbA1c level reached at W26: sotagliflozin 400 mg", "experimental": "The efficacy, relative to a placebo, […], was evaluated in multicentre, double-blind clinical with random distribution in three groups of treatment (group treated with sotagliflozin 200 mg daily dose, group treated with sotagliflozin 400 mg daily dose, and group treated with a placebo) of patients. The selected patients were adult patients with T2D (drug-naïve or on antidiabetic therapy) and documented moderate renal insufficiency defined by an eGFR (based on the 4 variable Modification of Diet in Renal Disease [MDRD] equation) of ≥30 and <60 mL/min/1.73 m^2 (CKD 3A, 3B). The study was conducted as follows: • Screening Phase—Visit 1 (up to 2 weeks) • Run-in phase (Visit 2), lasted 2 weeks. Patients were treated in a single-blind manner with two placebo tablets (identical to sotagliflozin 200 mg in appearance) administered once daily during the Run-in phase, starting from Visit 2 • Double-blind Treatment Period (Day 1 to Week 26): Eligible patients will be randomized on Day 1 (Visit 3). Following randomization, patients will be treated in a double-blind manner for 52 weeks. A total of 787 patients ≥18 years of age (or ≥legal age of the majority, whichever is greater) were randomly assigned 1:1:1 to the following 3 treatment groups: • Placebo, given as two (2) placebo tablets (identical to sotagliflozin 200 mg in appearance), once daily, before the first meal of the day • Sotagliflozin 200 mg, given as 2 tablets: 1 sotagliflozin 200 mg tablet and 1 placebo tablet (identical to sotagliflozin 200 mg in appearance), once daily • Sotagliflozin 400 mg, given as two (2) 200 mg tablets, once daily, before the first meal of the day. • Double-blind Extension Period (Week 27 to Week 52): • Follow-up Period Following the last dose of the IMP: a 4 week post-treatment visit to collect safety and some efficacy information. […] Efficacy analysis was based on the intent-to-treat (ITT) population using efficacy assessments obtained during the study, including those obtained after investigational medicinal product (IMP) discontinuation or introduction of rescue therapy. The ITT population consisted of all randomized patients. The primary efficacy endpoint was analyzed using an analysis of covariance (ANCOVA) model. The ANCOVA model included treatment groups (sotagliflozin 200 mg, sotagliflozin 400 mg, placebo), randomization stratum of HbA1c (≤8.5%, >8.5%), randomization stratum of SBP (<130, ≥130 mmHg), randomization stratum of CKD stage (3A, 3B), and country as fixed effects, and baseline HbA1c value as a covariate."}, "[3]": {"settings": "sotagliflozin 200 mg once daily"}, "[4]": {"settings": "sotagliflozin 400 mg once daily"}, "[5]": {"settings": "sotagliflozin 400 mg once daily, listed as sotagliflozin"}}, "data": [{"compound": "CCOc1ccc(Cc2cc([C@@H]3O[C@H](SC)[C@@H](O)[C@H](O)[C@H]3O)ccc2Cl)cc1", "note": "[Sotagliflozin, sotagliflozin]", "values": [{"measurement": "glycemic control (reduction in A1C)", "setting": "[1]", "value": "significantly improve glycemic control"}, {"measurement": "HbA1c (%) Change from baseline to Week 26 LS Mean difference (SE) vs. placebo", "setting": "[2]; sotagliflozin 200 mg once daily, 95% CI (−0.244, 0.054), p-value 0.2129", "value": "−0.09 (0.076) %"}, {"measurement": "HbA1c (%) Change from baseline to Week 26 LS Mean (SE)", "setting": "[2]; [3]", "value": "−0.32 (0.060) %"}, {"measurement": "HbA1c (%) Week 26 Mean (SD)", "setting": "[2]; [3]", "value": "7.82 (0.99) %"}, {"measurement": "HbA1c (%) Week 26 Median", "setting": "[2]; [3]", "value": 7.70, "unit": "%"}, {"measurement": "HbA1c (%) Change from baseline to Week 26 LS Mean difference (SE) vs. placebo", "setting": "[2]; sotagliflozin 400 mg once daily, 95% CI (−0.382, −0.082), p-value 0.0024", "value": "−0.23 (0.076) %"}, {"measurement": "HbA1c (%) Change from baseline to Week 26 LS Mean (SE)", "setting": "[2]; [4]", "value": "−0.46 (0.060) %"}, {"measurement": "HbA1c (%) Change from baseline to Week 26 LS Mean (SE)", "setting": "[2]; [5]", "value": "−0.46", "unit": "%"}, {"measurement": "HbA1c (%) Week 26 Mean (SD)", "setting": "[2]; [4]", "value": "7.72 (1.00) %"}, {"measurement": "HbA1c (%) Week 26 Median", "setting": "[2]; [4]", "value": 7.60, "unit": "%"}, {"measurement": "HbA1c (%) Week 26 Mean (SD)", "setting": "[2]; [5]", "value": 7.72, "unit": "%"}, {"measurement": "LS mean change in HbA1c from baseline to W26", "setting": "[2]; CKD3A population", "value": "−0.54", "unit": "%"}, {"measurement": "mean HbA1c level reached at W26", "setting": "[2]; CKD3A population", "value": 7.62, "unit": "%"}, {"measurement": "LS mean change in HbA1c from baseline to W26", "setting": "[2]; CKD3B population", "value": "−0.37", "unit": "%"}, {"measurement": "mean HbA1c level reached at W26", "setting": "[2]; CKD3B population", "value": 7.82, "unit": "%"}]}]}
